These are literature values, as cited in publication PMC4366844, “Biochemical and Pharmacological Characterizations of ESI-09 Based EPAC Inhibitors: Defining the ESI-09 “Therapeutic Window”” (Scientific Reports, 2015).

The subject of this series is EPAC2. The settings on record: cited from earlier work.

In the case of `Cc1ccc(S(=O)(=O)c2c(C)cc(C)cc2C)cc1` [ESI-05], the EPAC isoform selectivity result is on record as “exclusively selective for EPAC2”.
